Patent publication US10450270B2, “Glyoxamide substituted pyrrolamide derivatives and the use thereof as medicaments for the treatment of hepatitis B” (Janssen Sciences Ireland UC, priority 2013, dated 2019)
pEC50: −log10 of the molar value.

Assays:
HBV [1] = test: Anti-HBV activity, HepG2.2.15 stable transfected cell line, HBV DNA from secreted virions by realtime PCR; type: cell-based; details: Hepatitis B virus; for pEC50: 144 h, HepG2.2.15 cells, 6 days of treatment, HBV DNA from secreted virions, read-out: HepG 2.2.15 EC50; for EC50: HepG2.2.15, 144 h, read-out: HepG 2.2.15 EC50 (μM)
HBV [2] = test: Anti-HBV activity, HepG2.117 inducible HBV producing cell line (Tet-off), intracellular HBV DNA by realtime PCR; type: cell-based; details: Hepatitis B virus; for pEC50: 72 h, HepG2.117 cells, 3 days of treatment, intracellular HBV DNA, read-out: HepG2 117 EC50; for EC50: HepG2.117, 72 h, read-out: HepG2 117 EC50 (μM)
[3] = Cytotoxicity in HepG2 cells, Resazurin viability assay; details: human

Structure (SMILES) | pEC50 (HBV [1]) | pEC50 (HBV [2]) | CC50 at 4 days ([3]; HepG2 cells) | EC50 (HBV [1]) | EC50 (HBV [2]) | CC50 at 4 days [3]
Cc1cc(NC(=O)c2cc(C(=O)C(=O)N[C@H](C)CC#N)cn2C)ccc1F [Compound 9, 4-[{[(1R)-2-Cyano-1-methylethyl]amino}(oxo)acetyl]-N-(4-fluoro-3-methyl-phenyl)-1-methyl-1H-pyrrole-2-carboxamide] | 6.77 | 6.70 | > 25000 nM | – | – | –
Cc1cc(NC(=O)c2cc(C(=O)C(=O)NC(C)(C)C(N)=O)cn2C)ccc1F [Compound 8, 4-{[(2-Amino-1,1-dimethyl-2-oxoethyl)amino](oxo)acetyl}-N-(4-fluoro-3-methylphenyl)-1-methyl-1H-pyrrole-2-carboxamide] | 7.28 | 7.42 | > 25000 nM | – | – | –
C[C@@H](NC(=O)C(=O)c1cn(C)c(C(=O)Nc2ccc(F)c(C#N)c2)c1Cl)C(F)(F)F [Compound 24, 3-chloro-N-(3-cyano-4-fluoro-phenyl)-1-methyl-4-[2-oxo-2-[[(1R)-2,2,2-trifluoro-1-methyl-ethyl]amino]acetyl]pyrrole-2-carboxamide] | 7.70 | 7.62 | > 25000 nM | – | – | –
Cc1c(C(=O)C(=O)NC(C)(C)C)c(C)n(C)c1C(=O)Nc1ccc(F)c(C#N)c1 [Compound 19, 4-[(tert-Butylamino)(oxo)acetyl]-N-(3-cyano-4-fluorophenyl)-1,3,5-trimethyl-1H-pyrrole-2-carboxamide] | > 8.40 | 8.70 | > 100000 nM | – | – | –
Cc1cc(NC(=O)c2cc(C(=O)C(=O)NC(C)(C)C)cn2C)ccc1F [Compound 3, 4-(2-(tert-butylamino)-2-oxoacetyl)-N-(4-fluoro-3-methylphenyl)-1-methyl-1H-pyrrole-2-carboxamide] | 7.82 | 7.40 | > 25000 nM | – | – | –
Cc1c(C(=O)C(=O)NC(C)(C)C)c(C)n(C)c1C(=O)Nc1ccc(F)c(F)c1 [Compound 20, 4-[(tert-Butylamino)(oxo)acetyl]-N-(3,4-difluorophenyl)-1,3,5-trimethyl-1H-pyrrole-2-carboxamide] | > 8.40 | 8.70 | > 25000 nM | – | – | –
Cn1cc(C(=O)C(=O)NC(C)(C)C)cc1C(=O)Nc1cccc(C(F)(F)F)c1 [Compound 12, 4-(2-(tert-butylamino)-2-oxoacetyl)-1-methyl-N-(3-(trifluoromethyl)phenyl)-1H-pyrrole-2-carboxamide] | – | – | – | 0.043 µM | 0.74 µM | > 25000 nM
Cn1cc(C(=O)C(=O)NC2(C)COC2)cc1C(=O)Nc1cccc(C(F)(F)F)c1 [Compound 13, 1-methyl-4-(2-(3-methyloxetan-3-ylamino)-2-oxoacetyl)-N-(3-(trifluoro-methyl)phenyl)-1H-pyrrole-2-carboxamide] | 7.48 | < 6.00 | > 25000 nM | – | – | –
Cc1c(C(=O)C(=O)NC(C)(C)C)cn(C)c1C(=O)Nc1ccc(F)c(C#N)c1 [Compound 22, 4-[(tert-Butylamino)(oxo)acetyl]-N-(3-cyano-4-fluorophenyl)-1,3-dimethyl-1H-pyrrole-2-carboxamide] | 8.00 | 8.10 | > 25000 nM | – | – | –
Cc1c(C(=O)C(=O)NC(C)(C)C)cn(C)c1C(=O)Nc1ccc(F)c(F)c1 [Compound 21, 4-[(tert-Butylamino)(oxo)acetyl]-N-(3,4-difluorophenyl)-1,3-dimethyl-1H-pyrrole-2-carboxamide] | 8.05 | 7.96 | > 25000 nM | – | – | –
Cn1cc(C(=O)C(=O)NC2(C)COC2)cc1C(=O)Nc1ccc(F)c(C#N)c1 [Compound 16, N-(3-Cyano-4-fluorophenyl)-1-methyl-4-{[(3-methyloxetan-3-yl)amino]-(oxo)acetyl}-1H-pyrrole-2-carboxamide] | 7.32 | 7.40 | > 25000 nM | – | – | –
Cn1cc(C(=O)C(=O)NC(C)(C)C)cc1C(=O)Nc1cc(F)c(F)c(Cl)c1 [Compound 14, 4-(2-(tert-butylamino)-2-oxoacetyl)-N-(3-chloro-4,5-difluorophenyl)-1-methyl-1H-pyrrole-2-carboxamide] | 7.52 | 7.42 | > 25000 nM | – | – | –
Cn1cc(C(=O)C(=O)NC2(C)COC2)cc1C(=O)Nc1cc(F)c(F)c(Cl)c1 [Compound 17, N-(3-Chloro-4,5-difluorophenyl)-1-methyl-4-{[(3-methyloxetan-3-yl)-amino](oxo)acetyl}-1H-pyrrole-2-carboxamide] | 7.54 | 6.24 | > 25000 nM | – | – | –
Cc1cc(NC(=O)c2cc(C(=O)C(=O)NC(C)C)cn2C)ccc1F [Compound 2, N-(4-fluoro-3-methylphenyl)-4-(2-(isopropylamino)-2-oxoacetyl)-1-methyl-1H-pyrrole-2-carboxamide] | – | – | > 25000 nM | 0.029 µM | 0.75 µM | –
Cc1c(C(=O)C(=O)NC(C)(C)C)c(Cl)c(C(=O)Nc2ccc(F)c(C#N)c2)n1C [Compound 32, 4-[2-(tert-butylamino)-2-oxo-acetyl]-3-chloro-N-(3-cyano-4-fluoro-phenyl)-1,5-dimethyl-pyrrole-2-carboxamide] | > 8.40 | > 8.40 | > 25000 nM | – | – | –
C[C@@H](NC(=O)C(=O)c1c(Cl)c(C(=O)Nc2ccc(F)c(C#N)c2)n(C)c1C1CC1)C(F)(F)F [Compound 31, 3-chloro-N-(3-cyano-4-fluoro-phenyl)-5-cyclopropyl-1-methyl-4-[2-oxo-2-[[(1R)-2,2,2-trifluoro-1-methyl-ethyl]amino]acetyl]pyrrole-2-carboxamide] | 7.92 | 7.72 | > 25000 nM | – | – | –
Cc1c(C(=O)C(=O)N[C@H](C)C(F)(F)F)c(Cl)c(C(=O)Nc2ccc(F)c(C#N)c2)n1C [Compound 30, 3-chloro-N-(3-cyano-4-fluoro-phenyl)-1,5-dimethyl-4-[2-oxo-2-[[(1R)-2,2,2-trifluoro-1-methyl-ethyl]amino]acetyl]pyrrole-2-carboxamide] | > 8.40 | 8.52 | > 25000 nM | – | – | –
C[C@@H](NC(=O)C(=O)c1cc(C(=O)Nc2cc(F)c(F)c(Cl)c2)n(C)c1)C(F)(F)F [Compound 18, N-(3-Chloro-4,5-difluorophenyl)-1-methyl-4-(oxo{[(1R)-2,2,2-trifluoro-1-methylethyl]amino}acetyl)-1H-pyrrole-2-carboxamide] | 7.27 | 6.43 | > 25000 nM | – | – | –
Cc1c(C(=O)C(=O)NC(C)(C)C)c(F)c(C(=O)Nc2ccc(F)c(C#N)c2)n1C [Compound 36, 4-[2-(tert-butylamino)-2-oxo-acetyl]-N-(3-cyano-4-fluoro-phenyl)-3-fluoro-1,5-dimethyl-pyrrole-2-carboxamide] | – | > 8.40 | > 25000 nM | – | – | –
C[C@@H](NC(=O)C(=O)c1cn(C)c(C(=O)Nc2ccc(F)c(C#N)c2)c1Br)C(F)(F)F [Compound 26, 3-bromo-N-(3-cyano-4-fluoro-phenyl)-1-methyl-4-[2-oxo-2-[[(1R)-2,2,2-trifluoro-1-methyl-ethyl]amino]acetyl]pyrrole-2-carboxamide] | – | 7.15 | > 25000 nM | – | – | –
COCC(C)(CCO)NC(=O)C(=O)c1cc(C(=O)Nc2ccc(F)c(C#N)c2)n(C)c1C (stereo not drawn) [Compound 70, N-(3-cyano-4-fluoro-phenyl)-4-[2-[[3-hydroxy-1-(methoxymethyl)-1-methyl-propyl]amino]-2-oxo-acetyl]-1,5-dimethyl-pyrrole-2-carboxamide] | – | 7.60 | > 25000 nM | – | – | –
Cc1c(C(=O)C(=O)NC2(CO)COC2)cc(C(=O)Nc2ccc(F)c(C#N)c2)n1C [Compound 71, N-(3-cyano-4-fluoro-phenyl)-4-[2-[[3-(hydroxymethyl)oxetan-3-yl]amino]-2-oxo-acetyl]-1,5-dimethyl-pyrrole-2-carboxamide] | – | 7.62 | > 25000 nM | – | – | –
Cc1c(C(=O)C(=O)N[C@H](CO)C(C)C)cc(C(=O)Nc2ccc(F)c(C#N)c2)n1C [Compound 68, N-(3-cyano-4-fluoro-phenyl)-4-[2-[[(1S)-1-(hydroxymethyl)-2-methyl-propyl]amino]-2-oxo-acetyl]-1,5-dimethyl-pyrrole-2-carboxamide] | – | 7.11 | > 25000 nM | – | – | –
Cn1cc(C(=O)C(=O)NC2(C(F)(F)F)CCC2)c(Cl)c1C(=O)Nc1ccc(F)c(C#N)c1 [Compound 39, 3-chloro-N-(3-cyano-4-fluoro-phenyl)-1-methyl-4-[2-oxo-2-[[1-(tri-fluoromethyl)cyclobutyl]amino]acetyl]pyrrole-2-carboxamide] | – | 8.22 | > 25000 nM | – | – | –
Cn1cc(C(=O)C(=O)NC(C)(C)C)c(Cl)c1C(=O)Nc1ccc(F)c(C#N)c1 [Compound 23, 4-[(tert-Butylamino)(oxo)acetyl]-3-chloro-N-(3-cyano-4-fluorophenyl)-1-methyl-1H-pyrrole-2-carboxamide] | 8.30 | 8.10 | > 25000 nM | – | – | –
Cc1c(C(=O)C(=O)NC(C)C)cc(C(=O)Nc2ccc(F)c(C#N)c2)n1C [Compound 52, N-(3-cyano-4-fluoro-phenyl)-4-[2-(isopropylamino)-2-oxo-acetyl]-1,5-dimethyl-pyrrole-2-carboxamide] | – | 7.17 | > 25000 nM | – | – | –
Cc1c(C(=O)C(=O)NC2(C)COC2)cc(C(=O)Nc2ccc(F)c(C#N)c2)n1C [Compound 60, N-(3-cyano-4-fluoro-phenyl)-1,5-dimethyl-4-[2-[(3-methyloxetan-3-yl)-amino]-2-oxo-acetyl]pyrrole-2-carboxamide] | – | 7.96 | > 25000 nM | – | – | –
Cc1c(C(=O)C(=O)NC(C)(C)C)cc(C(=O)Nc2ccc(F)c(C#N)c2)n1C [Compound 59, 4-[2-(tert-butylamino)-2-oxo-acetyl]-N-(3-cyano-4-fluoro-phenyl)-1,5-dimethyl-pyrrole-2-carboxamide] | – | 8.40 | > 25000 nM | – | – | –
